“Also recorded” adds a separate entry of the source.
Legend:
APP/PS1 model of AD = conditions: cited from earlier work
[1] = tested on: clusterin expression in the corpus callosum; experiment: Cuprizone model of demyelination, clusterin immunofluorescence in the corpus callosum; assay type: in vivo; conditions: 5 weeks cuprizone diet then 1 week normal chow vs naïve mouse
Description: FIG. 9A is a photomicrograph showing clusterin expression (white) in the corpus callosum of a naïve mouse and a mouse following 5-weeks of cuprizone diet followed by 1-week of normal chow to allow remyelination to begin. FIG. 9B is a bar graph showing quantification of clusterin coverage of the corpus callosum depicted in FIG. 9A. N=1 independent experiment, n=5 mice per group. Data analyzed using an unpaired t-test. ***p<0.001. Error bars represent standard error of the mean.
Based on preliminary data, it is anticipated that genetic and the therapeutic silencing of clusterin ameliorate the pathology observed in the 5×FAD mice. If a difference in the number of oligodendrocytes and myelination is undetected, the 5×FAD are tested with the cuprizone model of demyelination. Diet supplemented with cuprizone (5 weeks at 0.3% w/w) induces extensive demyelination of the medial corpus callosum (Doucette et al., 2010). However, demyelination induced in this manner is reversible, as remyelination occurs following the removal of the drug. […] Sections of the medial corpus callosum (midline region above the for mix and between the lateral ventricles) are stained as proposed herein above to quantify OPCs and oligodendrocytes at the end of cuprizone treatment as well as 0.5, 1, 1.5, and 2 weeks following the removal of cuprizone, as described (see Fernandez-Castaneda et al., 2020).

[2] = tested on: clusterin expression in OPCs; experiment: Clusterin expression in treated primary OPCs by qPCR; assay type: cell-based, mouse; conditions: for effect of phagocytosis block on clusterin upregulation by myelin debris or apoptotic cells in OPCs: Cytochalasin D 1 μM with 100 μg/ml myelin debris; for clusterin expression in OPCs by qPCR (FIG. 7): 10 ng/ml TNFα 3 h, 10 μM H2O2 3 h, 3 μM Aβ 2 h, apoptotic cells 1:1 6 h, 100 μg/ml myelin debris 4 h; for clusterin expression in OPCs by qPCR (FIG. 12): 4-hour in vitro treatment: 3 μM Aβ, 100 μg/ml myelin, 10 ng/ml TNFα or IFNγ, 10 μM H2O2
Procedure: FIGS. 7A-7F: Macromolecules and protein aggregates cause OPCs to upregulate clusterin. OPCs treated with 10 ng/ml TNFα for 3 hours (FIG. 7A), 10 μM H2O2 for 3 hours (FIG. 7B), 3 μM […] for 2 hours (FIG. 7C), a 1:1 ratio of apoptotic cells for 6 hours (FIG. 7D), 100 μg/ml myelin debris for 4 hours (FIG. 7E), or 100 μg/ml myelin debris and 1 μM Cytochalasin D for 4 hours (FIG. 7F). Clusterin transcript quantity was measured using qPCR. N=1-2 independent experiments. n=4-8 samples/condition. All data was analyzed using a repeated measures t-test. ns: not significant; CytoD: Cytochalasin D. *p<0.05, **p<0.01.
FIGS. 12A-12I: Phagocytosis of extracellular debris drives clusterin expression in OPCs. FIG. 12A. Representative images of OPCs (PDGFRα in green, Olig2 in red) surrounding Aβ plaques (n=4; Scale bar=20 μm). FIG. 12B. Representative orthogonal view of CypHer-labeled Aβ (white) inside an OPC (PDGFRα in green. Olig2 in red) following injection of Aβ (n=6; Scale bar=10 μm). Representative images (FIG. 12C) and quantification (FIG. 12D) of clusterin expression (red) in the ipsilateral (CypHer-Aβ injected: green) and contralateral (FITC injected; green) hemispheres following injection (n=6 mice: Scale bar=100 μm) FIG. 12E. qPCR analysis of clusterin expression in OPCs following a 4-hour in vitro treatment with 3 μM Aβ and the phagocytosis blocker CytoD (1 μM) or vehicle control (n=24). f, Quantification of clusterin protein in OPCs following 72-hour treatment with 3 μM Aβ or vehicle control (n=10). qPCR analysis of clusterin expression in OPCs following a 4-hour in vitro treatment with 100 μg/ml myelin (FIG. 12G), cytokines (10 ng/ml TNFα or 10 ng/ml IFNγ; FIG. 12H) or 10 μM H2O2 (FIG. 12I) and CytoD (1 μM) or vehicle control (n=4-19).
Oligomeric […] Drives Expression of Clusterin in OPCs Given the impact of clusterin on OPCs differentiation in vitro, and the evidence supporting that myelin is impacted in AD (Roher et al., 2002; Desai et al., 2009; Desai et al., 2010; Zhan et al., 2014), we wanted to understand what factors initiate expression of clusterin in OPCs. We treated primary OPCs with TNFa, H2O2, oligomeric Aβ, myelin debris, and apoptotic cells and monitored expression of clusterin by qPCR. These treatments were selected because of their association with AD pathology (Sengupta et al., 2016; Ahmad et al., 2017; Chang et al., 2017). […] In order to test if phagocytosis was required to mediate the upregulation of clusterin, the same experiment was repeated in the presence of Cytochalasin D to block actin polymerization and prevent engulfment (Axline & Reaven, 1974; Soldati & Schliwa, 2006).
We next investigated whether Aβ treatment increases clusterin expression in OPCs. […] We noted that increase in clusterin expression was not specific to the phagocytic clearance of Aβ oligomers, as we also observed it when OPCs engulfed cellular debris.

OPCs (OLIG2+/PDGFRα+) = experiment: Tamoxifen-induced YFP labelling of OPCs in PDGFRα-CreER; R26-EYFP reporter mice; assay type: in vivo, mouse; conditions: 2 tamoxifen injections 3 days apart, counted ten days after the first injection, adult mice
Procedure: FIG. 1A is a representative image of YFP labeled OPCs (PDGFRα+Olig2+) cells following 2 tamoxifen injections. […] FIG. 1B is a graph of percent of OPCs expressing YFP following 0, 1, 2, or 3 tamoxifen injections. Each injection was given 3 days apart. n=2-3 mice/group.
To investigate the optimal dose of tamoxifen required for the reporter expression, we treated adult mice (6 weeks old) with 1, 2, or 3 tamoxifen injections (each injection was administered 3 days apart) and counted the number of YFP positive OPCs (OLIG2+/PDGFRα+) ten days after the first injection (see FIG. 1B).

clusterin = conditions: patients with prostate cancer, Phase 3 clinical trial; cited from earlier work
OPCs [3] = experiment: OPC differentiation into oligodendrocytes, myelin marker expression by qPCR; assay type: cell-based, mouse; conditions: differentiating conditions, 3 days
Procedure: (§1) FIGS. 13A-13G: Exogenous clusterin inhibits OPC differentiation. Expression of Mbp (FIG. 13A), Plp1 (FIG. 13B), Cnp (FIG. 13C), and Myrf (FIG. 13D), measured by qPCR in OPCs or OLGs treated with vehicle or 8 μg/ml of clusterin for 72 hours (n=7). Representative images (FIG. 13E) and quantification (FIG. 13F) of MBP expression in cells treated with or without 8 μg/ml of clusterin for 72 hours (n=5: Scale bar=50 μm). FIG. 13G. Quantification of OPCs viability following a 72 hours incubation with or without 8 μg/ml clusterin (n=11).
(§2) FIGS. 14A-14D: Clusterin inhibits differentiation by blocking IL-9 production. FIG. 14A. Quantification of cytokines present in the supernatant from OPCs treated with 8 μg/mL clusterin or vehicle control (n=6). Expression of Mbp (FIG. 14B), Plp1 (FIG. 14C), and Myrf (FIG. 14D), measured by qPCR in OPCs cultured in proliferation media (OPC Vehicle), differentiation media supplemented with vehicle (OLG Vehicle), or 8 μg/ml of is clusterin (OLG CLU), or 100 ng/ml IL-9 (OLG IL-9), or 8 μg/ml of clusterin and 100 ng/ml IL-9 (OLG CLU+IL-9) for 72 hours (n=11).
OPCs were prepared from neurospheres as previously described (Franco et al., 2015) and subsequently switched into differentiating conditions in the presence of recombinant clusterin (8 μg/ml) or vehicle (PBS) for 3 days. […]

IL-9 secretion by OPCs = experiment: Luminex Assay on the supernatant of OPCs (cytokine and growth factor secretion); assay type: cell-based, mouse; conditions: clusterin 8 μg/mL vs vehicle
Procedure: as §2
We next investigated what factors might be mediating clusterin's inhibition of OPC differentiation.
To identify whether clusterin can modify the composition of the OPC secretome, an unbiased multiplex analysis on the conditioned media of OPCs treated with vehicle or clusterin for 1-3 days was performed. […] IL-9 is a growth factor for T-cell subsets 64, and IL-9 receptor is expressed by OPCs in vivo. However, production and secretion of IL-9 by OPCs has not been previously reported.

OPCs [4] = experiment: OPC viability, CCK8 assay; assay type: cell-based, mouse; conditions: clusterin 8 μg/ml, 72 hours
Procedure: (§3) FIGS. 6A-6D: Clusterin inhibits OPC differentiation. FIG. 6A is a series of bar graphs showing expression of Mbp, Pip1, Cnp, and Myrf, measured by qPCR in cells cultured in proliferation media (OPC_Veh), differentiation media (OLG_Veh), or differentiation media supplemented with 8 μg/ml of clusterin (OLG_Clu). Data was analyzed using a mixed-effects analysis followed by a Tukey's multiple comparisons test. N=3 individual experiments, n=7 samples per group. FIG. 6B is a series of representative fluorescence micrograph images of cells cultured in differentiation media (Vehicle) or differentiation media supplemented with 8 μg/ml of clusterin (Clusterin). […] FIG. 6C is a bar graph of the quantification of the differentiation efficiency of cells depicted in FIG. 6B. […] Data was is analyzed using a repeated measures t-test. […]
as §1, with “FIG. 13G.” left out, “(n=11). […]” for “(n=11).”

OPCs [5] = experiment: OPC differentiation, MBP positive oligolineage cells by immunofluorescence; assay type: cell-based, mouse; conditions: clusterin 8 μg/ml, 72 hours, differentiation media
Procedure: as §3
as §1, with “FIG. 13G.” left out, “(n=11). […]” for “(n=11).”

## CN1CCC[C@@H]1CCO[C@](C)(c1ccccc1)c1ccc(Cl)cc1 [Clemastine]
APP/PS1 model of AD
  myelin integrity and memory performance: improved both myelin integrity and memory performance

## O=C(NN=C1CCCCC1)C(=O)NN=C1CCCCC1 [Cuprizone]
[1]
  clusterin expression in the corpus callosum: upregulated

## C=C1[C@@H](C)[C@H]2[C@H](Cc3ccccc3)NC(=O)[C@]23[C@H](OC(C)=O)/C=C/[C@@](C)(O)C(=O)[C@@H](C)C/C=C/[C@H]3[C@@H]1O [Cytochalasin D]
[2]; CytoD 1 μM with 3 μM Aβ, 4 hours
  effect of phagocytosis block on Aβ-induced clusterin upregulation in OPCs: prevented Aβ from increasing clusterin production in OPCs
[2]; 4 hours
  effect of phagocytosis block on clusterin upregulation by myelin debris or apoptotic cells in OPCs: internalization of the cargo is necessary to mediate the upregulation of clusterin
[2]; 4 hours, listed as CytoD
  effect of phagocytosis block on clusterin upregulation by myelin debris or apoptotic cells in OPCs: abrogated

## OO [H2O2]
[2]
  clusterin expression in OPCs by qPCR (FIG. 7): did not influence clusterin expression
  clusterin expression in OPCs by qPCR (FIG. 12): failed to induce changes in clusterin expression

## CC/C(=C(\c1ccccc1)c1ccc(OCCN(C)C)cc1)c1ccccc1 [tamoxifen]
OPCs (OLIG2+/PDGFRα+)
  percent of OPCs expressing YFP: 95%

## Custirsen: ASO targeting clusterin in Phase 3 clinical trial; OGX-011 is 5-CAGCAGCAGAGTCTTCATCAT-3′ (SEQ ID NO: 11) (listed as DNA, chemistry not given here; listed as Homo sapiens)
clusterin
  levels of clusterin in patients: safely and effectively reduce levels of clusterin

## IL-9: interleukin 9 cytokine added exogenously (100 ng/ml) to differentiating OPCs
OPCs [3]; IL-9 100 ng/ml plus clusterin 8 μg/ml
  Expression of Mbp, Plp, and Myrf by qPCR in clusterin-treated OPCs supplemented with IL-9: prevented clusterin inhibition; also recorded: restored expression of these mature oligodendrocyte genes to a level similar as the untreated control

## TNFα
[2]
  clusterin expression in OPCs by qPCR (FIG. 7): did not influence clusterin expression
  clusterin expression in OPCs by qPCR (FIG. 12): failed to induce changes in clusterin expression

## clusterin: recombinant clusterin, a secreted chaperone protein, containing an HIS-tag, added exogenously to OPCs
IL-9 secretion by OPCs
  secretion of growth factors and cytokines by OPCs: altered secretion of multiple proteins
IL-9 secretion by OPCs; 1-3 days
  IL-9 secretion by OPCs: marked reduction; also recorded: blocked IL-9 release from OPCs
OPCs [4]
  OPC viability: did not impact OPC viability; also recorded: not due to OPC death
OPCs [5]
  percentage of MBP positive oligolineage cells (immunofluorescence): decrease; also recorded: fewer MBP-positive oligodendrocytes
OPCs [3]; recombinant clusterin 8 μg/ml vs vehicle (PBS)
  Expression of myelin markers (Mbp, Plp, Cnp, and Myrf) as determined by qPCR: decreased; also recorded: striking decrease; also recorded: blocks OPC differentiation

B1: IFNγ: cytokine upregulated in Alzheimer's disease, 10 ng/ml (protein, UniProt P01579 24-161, looked up)
Interferon gamma: QDPYVKEAENLKKYFNAGHSDVADNGTLFLGILKNWKEESDRKIMQSQIVSFYFKLFKNFKDDQSIQKSVETIKEDMNVKFFNSNKKKRDDFEKLTNYSVTDLNVQRKAIHELIQVMAELSPAAKTGKRKRSQMLFRG
[2]
  clusterin expression in OPCs by qPCR (FIG. 12): failed to induce changes in clusterin expression

From patent US20250283074A1, “CLUSTERIN OVEREXPRESSION IN ALZHEIMER’S DISEASE” (University of Virginia Patent Foundation, priority 2021, published 2025)
